Measurements as given in patent US9518008B2, “(1S,2S,3S,4R)-3-[(1S)-1-acetylamino-2-ethyl-butyl]-4-uanidino-2-hydroxyl-cyclopentyl-1-carboxylic acid hydrates pharmaceutical uses thereof” (Institute of Pharmacology and Toxicology Academy of …, priority 2007, dated 2016).
Like-named read-outs stand apart in the source and are kept apart here.

Columns and labels:
[1] = Determination of solubility; conditions: Solvent: Water; 25±2° C.
Experimental: According to the invention, the solubility of the compound of the invention can be tested by using a standard solubility test method.
While vigorously stirring for 30 seconds every 5 minutes, the dissolution of the powder was observed within 30 minutes.

[2] = Determination of hygroscopicity (high humidity test); format: physicochemical
Experimental: The hygroscopicity of the compound of the invention can be tested by a standard hygroscopicity test method. For example, the compound is stored in a sealed vessel at room temperature at a relative humidity of 92.5%, 80% or 75%, and the change in moisture content of the compound is tested by sampling at regular intervals.
At the 5th and 10th days, the products were sampled and determined in aspect of important items relating to stability investigation. […] If the weight gain of a product due to moisture absorption was more than 5%, the product was further experimented according to the same method under a relative humidity of 75%±5%. If the weight gain of a product due to moisture absorption was less than 5%, and other items thereof under investigation met the relevant requirements, no more experiment was needed. The humidity-constant condition could be achieved by placing a saturated saline solution at the lower part of a sealed vessel, e.g., a desiccator, and a NaCl saturated solution (15.5-60° C., a relative humidity of 75%±1%) or a KNO3 saturated solution (25° C., a relative humidity of 92.5%) may be selected according to the requirement of different relative humidity.

[3] = test system: influenza virus strain FM1 (H1N1); assay: Anti-influenza activity in infected mice (survival); format: in vivo, mice (BALB/C); conditions: 5 times, 14th day after infection
Experimental: A virus drip is prepared typically by including 500 pfu (plaque forming unit) of mice-compliance influenza virus strain in 50 μl phosphate buffer (containing 0.42% bovine serum albumin), and then dropped into nasal cavity of mice to infect them (BALB/C, female, aged 5-6 weeks, weighted 20 g). The compound of the invention is suspended in physiological saline to obtain different doses, typically from 2.5 mg/kg to 40 mg/kg, and is administered to the mice at different time before and after the viral infection, typically administered by intraperitoneal injection for 5 times, i.e., 1 hour, and 2, 3, 4, 5 days after the viral infection. The assay is performed by using 8 or 12, typically 10 mice. The result is expressed by the ratio of the number of survival mice the 14th day after the viral infection to the number of the mice in assay.
A solution was prepared by including 500 pfu (plaque forming unit) of mice-compliance influenza virus strain FM1 (H1N1) in 50 μl phosphate buffer (containing 0.42% bovine serum albumin), and then dropped into nasal cavity of mice (BALB/C, female, aged 5-6 weeks, weighted 20 g) to infect them with an infective dose of 23.7LD50. The compound of the invention was suspended in physiological saline, and was administered in doses of 2.5 mg/kg, 5 mg/kg, 10 mg/kg, 20 mg/kg to the mice by intraperitoneal injection for 5 times, i.e., 1 hour, and 2, 3, 4, 5 days after the viral infection, respectively. The assay was performed by 10 mice. The result was expressed by the ratio of the number of survival mice the 14th day after the viral infection to the number of the mice in assay.

[4] = Stability of RWJ270201 in aqueous solution; format: physicochemical; conditions: as shown by study
[5] = test system: NA of 7 influenza A virus stains; conditions: 7 influenza A virus strains; cited from earlier work
[6] = test system: NA of 4 influenza B virus strains; conditions: cited from earlier work
[7] = test system: influenza virus strain A/HongKong/156/97 (H5N1); conditions: cited from earlier work
[8] = test system: influenza virus strain B/Hong Kong/5/72; conditions: 1 mg/kg/day; cited from earlier work
[9] = test system: influenza virus strain A/Bayern/07/95 (H1N1); conditions: 10 mg/kg/day; cited from earlier work
[10] = test system: influenza virus strain A/NWS/33 (H1N1); conditions: 10 mg/kg/day; cited from earlier work
[11] = rats, 1000 mg/kg/day for 5 days; cited from earlier work
[12] = Relative humidity 92.5%, 25° C.

## (1S,2S,3S,4R)-3-[(1S)-1-acetylamino-2-ethyl-butyl]-4-guanidino-2-hydroxy-cyclopentyl-1-carboxylic acid dihydrate
[1]
  Solubility: 50 mg/mL
[2]; Relative humidity 75%
  Hygroscopicity at the 5th day: 2.21%
  Hygroscopicity at the 10th day: 2.54%
[2]; [12]
  Hygroscopicity at the 5th day: 2.54%
  Hygroscopicity at the 10th day: 2.98%

## CCC(CC)[C@H](NC(C)=O)[C@H]1[C@H](O)[C@@H](C(=O)O)C[C@H]1NC(=N)N [Anhydrous, (1S,2S,3S,4R)-3-[(1S)-1-acetylamino-2-ethyl-butyl]-4-guanidino-2-hydroxy-cyclopentyl-1-carboxylic acid, reference compound]
[2]; Relative humidity 75%
  Hygroscopicity at the 5th day: 7.23%
  Hygroscopicity at the 10th day: 12.88%
[2]; [12]
  Hygroscopicity at the 5th day: 8.38%
  Hygroscopicity at the 10th day: 13.53%
[2]; as shown by study
  hygroscopicity: easily hygroscopic
[2]; ten-day observation test, sealed vessel, room temperature, high relative humidity
  weight gain: about 13.53%
[3]; 2.5 mg/kg intraperitoneal
  Survival number: 5/10
  Survival rate: 50%
[3]; 5.0 mg/kg intraperitoneal
  Survival number: 7/10
  Survival rate: 70%
[3]; 10 mg/kg intraperitoneal
  Survival number: 7/10
  Survival rate: 70%
[3]; 20 mg/kg intraperitoneal
  Survival number: 9/10
  Survival rate: 90%
[4]
  stability in aqueous solution: unstable in aqueous solution
[5]
  IC50: 100 to 1400 pM
[6]
  IC50: 600 to 11000 pM
[7]; group of 10 mg/kg/day
  Survival rate: up to 100%
[7]; infected mice
  death rate: markedly reduce the death rate
  diffusion of virus to brain tissue: prevent the diffusion of virus to brain tissue
  virus titer in lung tissue: markedly reduce virus titer in lung tissue
[7]; mouse, in vivo, 0.1 mg/kg/day
  Survival rate: up to 70%
[8]
  arterial oxygen saturation: prevent the reduction in arterial oxygen saturation
  death rate: reduce the death rate
  efficacy compared with oseltamivir: more effective than oseltamivir
  lung consolidation: inhibit lung consolidation
[9]
  effect on infection: effectively antagonize the infection
[10]
  death rate: reduce the death rate
[11]
  toxic side effect: no toxic side effect was found
